Measurements as given in patent publication US7109193B2, “Tricyclic diazepines tocolytic oxytocin receptor antagonists” (Wyeth, priority 2001, dated 2006).

target: T1, human vasopressin V1a receptor subtype (Homo sapiens, UniProt P37288); assay: Vasopressin binding in Chinese Hamster Ovary cell membranes expressing human vasopressin V1a subtype receptors; conditions: 100 nM, CHO cell membranes, [3H]Manning ligand, values without parentheses
T1 construct: host or cells: CHO cells (pZeoSV vector for the Thibonnier line)
T1 sequence (P37288 whole entry): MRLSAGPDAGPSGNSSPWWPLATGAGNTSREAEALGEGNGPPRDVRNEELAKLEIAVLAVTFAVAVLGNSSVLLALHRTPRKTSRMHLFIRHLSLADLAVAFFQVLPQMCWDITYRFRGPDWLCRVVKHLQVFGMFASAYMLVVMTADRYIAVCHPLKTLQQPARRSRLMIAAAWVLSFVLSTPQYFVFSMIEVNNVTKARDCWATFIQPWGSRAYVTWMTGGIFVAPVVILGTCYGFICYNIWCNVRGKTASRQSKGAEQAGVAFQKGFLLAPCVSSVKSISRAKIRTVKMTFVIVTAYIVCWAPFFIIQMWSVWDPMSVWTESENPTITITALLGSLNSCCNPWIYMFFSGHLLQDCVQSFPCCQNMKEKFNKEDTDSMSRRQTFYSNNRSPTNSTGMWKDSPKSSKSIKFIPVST
Procedure, shortened: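 Displacement of [3H]Manning ligand (8 nM working solution) from human V1a receptors in CHO cell membranes, 25–50 μg protein per well. Incubation ran 60 min at room temperature in 50 mM Tris-HCl pH 7.4 with protease inhibitors, followed by filtration and scintillation counting. Results are given as IC50 or percent inhibition.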

Point of comparison: COc1cc(-c2ccccc2C)c(Cl)cc1C(=O)N1Cc2ccc(C(=O)N(C)C3CCN(C)CC3)n2Cc2ccccc21 [Example 180, 10-[(6-Chloro-3-methoxy-2′-methyl[1,1′-biphenyl]-4-yl)carbonyl]-N-methyl-N-(1-methyl-4-piperidinyl)-10,11-dihydro-5H-pyrrolo[2,1-c][1,4]benzodiazepine-3-carboxamide], inhibition at 0.1 µM 26%. Against it:
- COc1cc(C(=O)N2Cc3ccc(C(=O)NCCC4CCCN4C)n3Cc3ccccc32)ccc1-c1cccc2ccccc12 (stereo not shown) [Example 170, 10-[3-Methoxy-4-(1-naphthyl)benzoyl]-N-[2-(1-methyl-2-pyrrolidinyl)ethyl]-10,11-dihydro-5H-pyrrolo[2,1-c][1,4]benzodiazepine-3-carboxamide] — lower, 21%
- COc1cccc(-c2ccc(C(=O)N3Cc4ccc(C(=O)N5CCN(C(C)C)CC5)n4Cc4ccccc43)cc2OC)c1 [Example 242, {10-[(2,3′-Dimethoxy[1,1′-biphenyl]-4-yl)carbonyl]-10,11-dihydro-5H-pyrrolo[2,1-c][1,4]benzodiazepin-3-yl}(4-isopropyl-1-piperazinyl)methanone] — higher, 33%
- Cc1ccccc1-c1ccc(C(=O)N2Cc3ccc(C(=O)NCCC4CCCN4C)n3Cc3ccccc32)cc1C (stereo not shown) [Example 163, 10-[(2,2′-Dimethyl[1,1′-biphenyl]-4-yl)carbonyl]-N-[2-(1-methyl-2-pyrrolidinyl)ethyl]-10,11-dihydro-5H-pyrrolo[2,1-c][1,4]benzodiazepine-3-carboxamide] — higher, 43%
- COc1ccccc1-c1ccc(C(=O)N2Cc3ccc(C(=O)N(C)C4CCN(C)C4)n3Cc3ccccc32)cc1OC (stereo not shown) [Example 193, 10-[(2,2′-Dimethoxy[1,1′-biphenyl]-4-yl)carbonyl]-N-methyl-N-(1-methyl-3-pyrrolidinyl)-10,11-dihydro-5H-pyrrolo[2,1-c][1,4]benzodiazepine-3-carboxamide] — higher, 41%
- COc1cc(-c2ccccc2C)c(Cl)cc1C(=O)N1Cc2ccc(C(=O)N3CCN(CCN4CCOCC4)CC3)n2Cc2ccccc21 [Example 217, {10-[(6-Chloro-3-methoxy-2′-methyl[1,1′-biphenyl]-4-yl)carbonyl]-10,11-dihydro-5H -pyrrolo[2,1-c][1,4]benzodiazepin-3-yl}{4-[2-(4-morpholinyl)ethyl]-1-piperazinyl}methanone] — lower, 21%
- COc1ccccc1-c1ccc(C(=O)N2Cc3ccc(C(=O)N(C)C4CCN(C)C4)n3Cc3ccccc32)cc1C (stereo not shown) [Example 185, 10-[(2′-Methoxy-2-methyl[1,1′-biphenyl]-4-yl)carbonyl]-N-methyl-N-(1-methyl-3-pyrrolidinyl)-10,11-dihydro-5H-pyrrolo[2,1-c][1,4]benzodiazepine-3-carboxamide] — higher, 37%
- COc1ccccc1-c1ccc(C(=O)N2Cc3ccc(C(=O)NCCC4CCCN4C)n3Cc3ccccc32)cc1C (stereo not shown) [Example 162, 10-[(2′-Methoxy-2-methyl[1,1′-biphenyl]-4-yl)carbonyl]-N-[2-(1-methyl-2-pyrrolidinyl)ethyl]-10,11-dihydro-5H-pyrrolo[2,1-c][1,4]benzodiazepine-3-carboxamide] — lower, 18%
- Cc1ccccc1-c1ccc(C(=O)N2Cc3ccc(C(=O)N4CCN(CCN(C)C)CC4)n3Cc3ccccc32)cc1C [Example 198, {4-[2-(Dimethylamino)ethyl]-1-piperazinyl}{10-[(2,2′-dimethyl[1,1′-biphenyl]-4-yl)carbonyl]-10,11-dihydro-5H-pyrrolo[2,1-c][1,4]benzodiazepin-3-yl}methanone] — higher, 50%
- COc1ccccc1-c1ccc(C(=O)N2Cc3ccc(C(=O)N(C)C4CCN(C)CC4)n3Cc3ccccc32)cc1OC [Example 183, 10-[(2,2′-Dimethoxy[1,1′-biphenyl]-4-yl)carbonyl]-N-methyl-N-(1-methyl-4-piperidinyl)-10,11-dihydro-5H-pyrrolo[2,1-c][1,4]benzodiazepine-3-carboxamide] — the same, 26%
- COc1cccc(-c2cc(OC)c(C(=O)N3Cc4ccc(C(=O)NCCC5CCCN5C)n4Cc4ccccc43)cc2Cl)c1 (stereo not shown) [Example 169, 10-[(6-Chloro-3,3′-dimethoxy[1,1′-biphenyl]-4-yl)carbonyl]-N-[2-(1-methyl-2-pyrrolidinyl)ethyl]-10,11-dihydro-5H-pyrrolo[2,1-c][1,4]benzodiazepine-3-carboxamide] — lower, 9%
- COc1cc(C(=O)N2Cc3ccc(C(=O)N4CCN(C(C)C)CC4)n3Cc3ccccc32)ccc1-c1cccc2ccccc12 [Example 236, (4-Isopropyl-1-piperazinyl){10-[3-methoxy-4-(1-naphthyl)benzoyl]-10,11-dihydro-5H -pyrrolo[2,1-c][1,4]benzodiazepin-3-yl}methanone] — lower, 6%
- Cc1ccccc1-c1ccc(C(=O)N2Cc3ccc(C(=O)N4CCN(C(C)C)CC4)n3Cc3ccccc32)cc1C [Example 233, {10-[(2,2′-Dimethyl[1,1′-biphenyl]-4-yl)carbonyl]-10,11-dihydro-5H-pyrrolo[2,1-c][1,4]benzodiazepin-3-yl}(4-isopropyl-1-piperazinyl)methanone] — higher, 31%
- COc1cc(C(=O)N2Cc3ccc(C(=O)NCCN4CCCCC4)n3Cc3ccccc32)ccc1-c1cccc2ccccc12 [Example 157, 10-[3-Methoxy-4-(1-naphthyl)benzoyl]-N-[2-(1-piperidinyl)ethyl]-10,11-dihydro-5H-pyrrolo[2,1-c][1,4]benzodiazepine-3-carboxamide] — lower, 5%
- Cc1cc(C(=O)N2Cc3ccc(C(=O)NCCC4CCCN4C)n3Cc3ccccc32)ccc1-c1ccccc1C(F)(F)F (stereo not shown) [Example 174, N-[2-(1-Methyl-2-pyrrolidinyl)ethyl]-10-{[2-methyl-2′-(trifluoromethyl)[1,1′-biphenyl]-4-yl]carbonyl}-10,11-dihydro-5H-pyrrolo[2,1-c][1,4]benzodiazepine-3-carboxamide] — lower, 8%
- Cc1ccccc1-c1ccc(C(=O)N2Cc3ccc(C(=O)N4CCN(CCN(C)C)CC4)n3Cc3ccccc32)cc1 [Example 200, {4-[2-(Dimethylamino)ethyl]-1-piperazinyl}{10-[(2′-methyl[1,1′-biphenyl]-4-yl)carbonyl]-10,11-dihydro-5H-pyrrolo[2,1-c][1,4]benzodiazepin-3-yl}methanone] — higher, 64%
- Cc1cc(C(=O)N2Cc3ccc(C(=O)N4CCN(C(=O)OC(C)(C)C)CC4)n3Cc3ccccc32)ccc1-c1ccccc1C(F)(F)F [Example 6, 4-[[10,11-Dihydro-10-[[2-methyl-2′-trifluoromethyl[1,1′-biphenyl]-4-yl]carbonyl]-5H-pyrrolo[2,1-c][1,4]benzodiazepin-3-yl]carbonyl]-1-piperazine-carboxylic acid, tert-butyl ester] — lower, 2%
- COc1ccccc1-c1ccc(C(=O)N2Cc3ccc(C(=O)N4CCN(C(C)C)CC4)n3Cc3ccccc32)cc1OC [Example 241, {10-[(2,2′-Dimethoxy[1,1-biphenyl]4-yl)carbonyl]-10,11-dihydro-5H-pyrrolo[2,1-c][1,4]benzodiazepin-3-yl}(4-isopropyl-1-piperazinyl)methanone] — lower, -4%
- COc1cc(C(=O)N2Cc3ccc(C(=O)N(C)C4CCN(C)C4)n3Cc3ccccc32)ccc1-c1cccc2ccccc12 (stereo not shown) [Example 192, 10-[3-Methoxy-4-(1-naphthyl)benzoyl]-N-methyl-N-(1-methyl-3-pyrrolidinyl)-10,11-dihydro-5H-pyrrolo[2,1-c][1,4]benzodiazepine-3-carboxamide] — higher, 31%
- COc1ccccc1-c1ccc(C(=O)N2Cc3ccc(C(=O)N4CCN(CCN(C)C)CC4)n3Cc3ccccc32)cc1OC [Example 204, {10-[(2,2′-Dimethoxy[1,1′-biphenyl]-4-yl)carbonyl]-10,11-dihydro-5H-pyrrolo[2,1-c][1,4]benzodiazepin-3-yl}{4-[2-(dimethylamino)ethyl]-1-piperazinyl}methanone] — lower, 16%
- C=CCN1CCN(C(=O)c2ccc3n2Cc2ccccc2N(C(=O)c2ccc(-c4ccccc4C)cc2)C3)CC1 [Example 224, (4-Allyl-1-piperazinyl){10-[(2′-methyl[1,1′-biphenyl]-4-yl)carbonyl]-10,11-dihydro-5H -pyrrolo[2,1-c][1,4]benzodiazepin-3-yl}methanone] — lower, 1%
- COc1cc(-c2ccccc2C)c(Cl)cc1C(=O)N1Cc2ccc(C(=O)N(C)C3CCN(C)C3)n2Cc2ccccc21 (stereo not shown) [Example 190, 10-[(6-Chloro-3-methoxy-2′-methyl[1,1′-biphenyl]-4-yl)carbonyl]-N-methyl-N-(1-methyl-3-pyrrolidinyl)-10,11-dihydro-5H-pyrrolo[2,1-c][1,4]benzodiazepine-3-carboxamide] — higher, 40%
- Cc1cc(C(=O)N2Cc3ccc(C(=O)N4CCN(C(C)C)CC4)n3Cc3ccccc32)ccc1-c1ccccc1C(F)(F)F [Example 240, (4-Isopropyl-1-piperazinyl)(10-{[2-methyl-2′-(trifluoromethyl)[1,1′-biphenyl]-4-yl]carbonyl}-10,11-dihydro-5H-pyrrolo[2,1-c][1,4]benzodiazepin-3-yl)methanone] — lower, 1%
- C=CCN1CCN(C(=O)c2ccc3n2Cc2ccccc2N(C(=O)c2ccc(-c4cccc5ccccc45)c(OC)c2)C3)CC1 [Example 231, (4-Allyl-1-piperazinyl){10-[3-methoxy-4-(1-naphthyl)benzoyl]-10,11-dihydro-5H -pyrrolo[2,1-c][1,4]benzodiazepin-3-yl}methanone] — lower, 7%
- Cc1cc(C(=O)N2Cc3ccc(C(=O)NCCN4CCCCC4)n3Cc3ccccc32)ccc1-c1ccccc1C(F)(F)F [Example 161, 10-{[2-Methyl-2′-(trifluoromethyl)[1,1′-biphenyl]-4-yl]carbonyl}-N-[2-(1-piperidinyl)ethyl]-10,11-dihydro-5H-pyrrolo[2,1-c][1,4]benzodiazepine-3-carboxamide] — lower, 8%
